Results taken from US9120770B2, “Substituted pyridine and pyrazine compounds as PDE4 inhibitors” (DART NEUROSCIENCE (CAYMAN) LTD., priority 2013, dated 2015).

These molecules were tested against PDE4D3 (Homo sapiens, UniProt Q08499).
Sequence of PDE4D3 (Q08499 1-673 isoform Q08499-2): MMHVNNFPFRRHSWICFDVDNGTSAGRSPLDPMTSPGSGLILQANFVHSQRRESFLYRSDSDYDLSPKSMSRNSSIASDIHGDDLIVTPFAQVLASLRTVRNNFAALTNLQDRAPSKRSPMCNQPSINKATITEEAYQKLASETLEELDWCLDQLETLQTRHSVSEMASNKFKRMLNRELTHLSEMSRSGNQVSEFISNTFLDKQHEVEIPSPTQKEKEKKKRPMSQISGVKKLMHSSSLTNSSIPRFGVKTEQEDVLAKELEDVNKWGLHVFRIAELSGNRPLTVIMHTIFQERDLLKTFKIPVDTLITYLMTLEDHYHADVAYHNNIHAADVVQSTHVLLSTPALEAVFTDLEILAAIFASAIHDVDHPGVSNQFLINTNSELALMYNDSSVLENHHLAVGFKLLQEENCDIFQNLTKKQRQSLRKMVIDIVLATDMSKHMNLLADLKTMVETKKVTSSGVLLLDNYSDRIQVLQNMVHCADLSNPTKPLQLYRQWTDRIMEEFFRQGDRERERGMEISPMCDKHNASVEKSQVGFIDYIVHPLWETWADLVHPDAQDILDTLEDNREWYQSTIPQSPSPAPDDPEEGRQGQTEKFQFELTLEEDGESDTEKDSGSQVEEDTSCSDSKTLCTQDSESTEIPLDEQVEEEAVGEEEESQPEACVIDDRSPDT

Row | SMILES | EC50
1 | COc1ncc(Cn2ncnc2C(F)(F)F)cc1-c1cccc(OC(F)F)c1 [Example 160, 3-[3-(Difluoromethoxy)phenyl]-2-methoxy-5-{[5-(trifluoromethyl)-1H-1,2,4-triazol-1-yl]methyl}pyridine] | 100 to 1000 nM
2 | COc1ncc(Cc2cnc(C(N)=O)nc2)nc1-c1cccc(OC(F)F)c1 [Example 125, 5-({6-[3-(Difluoromethoxy)phenyl]-5-methoxypyrazin-2-yl}methyl)pyrimidine-2-carboxamide] | < 100 nM
3 | COC(=O)c1ncnn1Cc1cnc(OC)c(-c2cccc(Cl)c2)c1 [Example 140, Methyl 1-{[5-(3-chlorophenyl)-6-methoxypyridin-3-yl]methyl}-1H-1,2,4-triazole-5-carboxylate] | > 10000 nM
4 | FC(F)Oc1ncc(Cn2cncn2)cc1-c1cccc(OC(F)(F)F)c1 [Example 176, 2-(Difluoromethoxy)-5-(1H-1,2,4-triazol-1-ylmethyl)-3-[3-(trifluoromethoxy)phenyl]pyridine] | 100 to 1000 nM
5 | COc1ncc(Cc2ccc(C(F)(F)F)nc2)cc1-c1cccc(Cl)c1 [Example 49, 3-(3-Chlorophenyl)-2-methoxy-{[6-(trifluoromethyl)pyridin-3-yl]methyl}pyridine] | 100 to 1000 nM
6 | COc1ncc(C(F)c2ccc(F)cc2)cc1-c1cccc(Cl)c1 (centres unmarked) [Example 20, 3-(3-Chlorophenyl)-5-[fluoro(4-fluorophenyl)methyl]-2-methoxypyridine] | 100 to 1000 nM
7 | COc1ncc(Cn2cncn2)cc1-c1cc(Cl)cs1 [Example 142, 3-(4-Chlorothiophen-2-yl)-2-methoxy-5-(1H-1,2,4-triazol-1-ylmethyl)pyridine] | 100 to 1000 nM
8 | COc1ncc(Cc2cnc(NCCN(C)C)nc2)cc1-c1cccc(Cl)c1 [Example 3, {2-[(5-{[5-(3-Chlorophenyl)-6-methoxypyridin-3-yl]methyl}pyrimidin-2-yl)amino]ethyl}dimethylamine] | 1000 to 10000 nM
9 | NC(=O)c1ccc(Cc2cnc(OC(F)F)c(-c3cccc(Cl)c3)c2)cn1 [Example 114, 5-{[5-(3-Chlorophenyl)-6-(difluoromethoxy)pyridin-3-yl]methyl}pyridine-2-carboxamide] | 100 to 1000 nM

The next lines start with the values.

Row | EC50 | SMILES
10 | 100 to 1000 nM | CCOc1ncc(Cn2cc(CF)nn2)cc1-c1cccc(OC(F)F)c1 [Example 254, 3-[3-(Difluoromethoxy)phenyl]-2-ethoxy-5-{[4-(fluoromethyl)-1H-1,2,3-triazol-1-yl]methyl}pyridine]
11 | 1000 to 10000 nM | COc1ncc(Cn2ncnc2CO)nc1-c1cccc(Cl)c1 [Example 210, (1-{[6-(3-Chlorophenyl)-5-methoxypyrazin-2-yl]methyl}-1H-1,2,4-triazol-5-yl)methanol]
12 | 100 to 1000 nM | CCOc1ncc(Cn2ncc(Cl)c2CO)cc1-c1cccc(Cl)c1 [Example 278, (4-Chloro-1-{[5-(3-chlorophenyl)-6-ethoxypyridin-3-yl]methyl}-1H-pyrazol-5-yl)methanol]
13 | 1000 to 10000 nM | COc1ncc(Cn2cnc(C(C)(C)O)n2)cc1-c1cccc(Cl)c1 [Example 247, 2-(1-{[5-(3-Chlorophenyl)-6-methoxypyridin-3-yl]methyl}-1H-1,2,4-triazol-3-yl)propan-2-ol]
14 | 100 to 1000 nM | COc1ncn(Cc2cnc(OC)c(-c3cccc(Cl)c3)c2)n1 [Example 213, 3-(3-Chlorophenyl)-2-methoxy-5-[(3-methoxy-1H-1,2,4-triazol-1-yl)methyl]pyridine]
15 | 1000 to 10000 nM | COc1ncc(Cn2cncn2)cc1-c1cnn(C)c1 [Example 248, 2-Methoxy-3-(1-methyl-1H-pyrazol-4-yl)-5-(1H-1,2,4-triazol-1-ylmethyl)pyridine]
16 | 1000 to 10000 nM | COC(=O)c1ncnn1Cc1cnc(OC)c(-c2cccc(Cl)c2)n1 [Example 195, Methyl 1-{[6-(3-chlorophenyl)-5-methoxypyrazin-2-yl]methyl}-1H-1,2,4-triazole-5-carboxylate]
17 | 100 to 1000 nM | COc1ncc(Cn2cnc(CO)n2)nc1-c1cccc(OC(F)F)c1 [Example 211, [1-({6-[3-(Difluoromethoxy)phenyl]-5-methoxypyrazin-2-yl}-methyl)-1H-1,2,4-triazol-3-yl]methanol]
